{"source": "patent US7429564B2", "about": "“Oral insulin therapy” (Emisphere Technologies, Inc., priority 2002, dated 2008)", "key": {"[1]": {"assay": "Example 8: food effect on 4-CNAB pharmacokinetics, type 1 diabetes patients", "assay_type": "in vivo, human", "conditions": "for AUC / Cmax / Tmax / AUC(0-inf) / half-life: human, plasma; for AUC(0-inf): read-out: Plasma 4-CNAB AUC0-inf; for half-life: read-out: Plasma 4-CNAB t1/2 (converted)", "method": "A single-center, open label, randomized, single dose, 3-way cross-over study was conducted in type 1 diabetes mellitus patients to investigate the effect of food on the absorption and pharmacokinetics of insulin after a single dose of oral 4-CNAB/insulin, and to determine the effect of food on the pharmacodynamics of glucose and C-peptide after a single oral dose of 4-CNAB/insulin.\nFor diabetic patients, the study consisted of an eligibility screening period, three study periods and a follow-up exam at the conclusion of the last period. The three study periods included the following: administration of single doses of 4-CNAB/insulin followed by fasting (treatment A), followed by an ADA breakfast […] after dosing (treatment B), and followed by an ADA breakfast […] after dosing (treatment C). The study was conducted using an open label, randomized, crossover design with an interval of at least 7 days between treatments. The patients fasted overnight. The type 1 diabetics were randomized to treatment A or […] in periods 1 and 2. In period 3, all diabetics received treatment C. A total of eight type 1 diabetic patients were enrolled. As a control group, two healthy volunteers were enrolled.\nThe following treatments were administered to the type 1 diabetics according to the randomization schedule (see below) • a) 400 mg 4-CNAB/300 IU insulin followed by fasting; • b) 400 mg 4-CNAB/300 IU insulin followed by an ADA breakfast 30 minutes after dosing; • c) 400 mg 4-CNAB/300 IU insulin followed by an ADA breakfast 20 minutes after dosing.\nBlood samples for pharmacokinetic analysis of 4-CNAB and insulin were drawn 30, 15 and 5 minutes prior to and at 10, 20, 30, 40, 50, 60, 75, 90, 105, 120, 150, 180, 210, and 240 minutes after 4-CNAB/insulin administration (17 samples per subject per period). Blood samples for plasma glucose were drawn 30, 15 and 5 minutes prior to and at 10, 20, 30, 40, 50, 60, 75, 90, 105, 120, 150, 180, 210, and 240 minutes after administration (17 samples per subject per period). Blood samples for C-peptide were drawn 30 and 5 minutes prior to and 30, 60, 90, 120, 180 and 240 minutes after administration (8 samples per subject per period)."}, "rhesus monkeys": {"system": "rhesus monkeys", "conditions": "rhesus monkey, in vivo, 14 days", "method": "(§1) The present invention comprising compositions of insulin and the delivery agent 4-CNAB was evaluated for safety and toxicity in a nonclinical program that included pharmacological screening, pharmacokinetic profiling, and toxicity assessments in rats and monkeys."}, "[2]": {"assay": "Example 5: safety and tolerability", "conditions": "4-CNAB alone, oral 400-2000 mg", "source_text": "Safety assessments included physical examinations, medical history, vital signs, 12-lead electrocardiogram (ECG) monitoring, laboratory evaluations and checking for adverse events. Activity parameters included blood glucose, insulin, C-peptide, and 4-CNAB plasma concentration measurements."}, "[3]": {"assay": "Example 7: 4-CNAB plasma concentrations", "assay_type": "in vivo, human", "conditions": "after start of meal intake; 200 or 400 mg 4-CNAB", "method": "Blood samples for determination of 4-CNAB plasma concentrations (2 mL in sodium heparin tube) were drawn 10, 20, 30, 40, 60, 90, 120, 240 and 360 minutes after start of meal intake (9 samples per session). Blood samples for determination of insulin and C-peptide plasma concentrations (5 mL in sodium heparin tube) were drawn at −60 and −30 minutes, at time 0 (start of meal intake), and after 10, 20, 30, 40, 50, 60, 75, 90, 105, 120, 150, 180, 210, 240, 300, and 360 minutes (19 samples per session). Plasma concentrations of insulin were determined by a GLP-validated microparticle enzyme immunoassay (MEIA)."}, "[4]": {"assay": "Delivery agent plasma concentrations in humans after oral delivery agent capsules", "assay_type": "in vivo, human", "method": "Delivery agents 1-3 were investigated for their ability to penetrate the GI mucosa. The plasma concentration of each delivery agent was measured in human subjects after oral administration of delivery agent loaded capsules as a measure of each delivery agent's penetration efficiency.\nBlood sampling for plasma delivery agent concentration determination (2 mL in sodium heparin tube) were drawn 15 minutes before dosing, and at 5, 10, 15, 30, and 45 minutes and 1, 1.5, 2, 3, 4, 6, 8, and 12 hours post-dose (14 samples per treatment) for delivery agent measurements in all treatment groups.\nTwo 18-gauge IV lines were situated prior to dosing; one for blood sampling, and the other for potential infusion of 20% glucose for subjects in groups 2 and 3. The subjects in group 1 only had one cannula inserted. The blood samples were centrifuged at 3000 rpm for a period of fifteen minutes at a temperature from about 2° C. to 8° C., within one hour of sample collection. Using a plastic pipette and without disturbing the red cell layer, the plasma from the collection tube was pipetted in duplicate for each analysis, blood glucose, Human Insulin, C-peptide, delivery agent into pre-labeled polypropylene tubes. The samples were stored at −70° C. until analysis.\nThe indicated doses were ingested by healthy human volunteers and the plasma concentrations of the delivery agents were monitored over time and the area under the curve (AUC) calculated. […] Similarly, oral administration of 800 mg of delivery agent number 3 produced more than a 23 fold greater penetration of the GI mucosa in humans than did oral administration of 750 mg of delivery agent 2 having n equal to 9 alkyl."}, "[5]": {"assay": "Delivery agent plasma concentrations in monkeys after oral administration", "assay_type": "in vivo", "method": "Similar results were obtained when delivery agents 1-3 were administered orally to monkeys and the plasma concentrations of the delivery agents monitored over time and the AUC calculated."}, "Genotoxicity studies": {"assay": "Genotoxicity studies", "conditions": "four studies", "method": "as §1"}, "[6]": {"conditions": "monkey, in vivo"}, "[7]": {"conditions": "oral, period 0-20 minutes post-dose, Breakfast 20 min post-dose"}, "[8]": {"conditions": "oral, period 0-20 minutes post-dose, Breakfast 30 min post-dose"}, "[9]": {"conditions": "oral, period 0-20 minutes post-dose, Fasting"}, "[10]": {"conditions": "oral, period 0-30 minutes post-dose, Breakfast 20 min post-dose"}, "[11]": {"conditions": "oral, period 0-30 minutes post-dose, Breakfast 30 min post-dose"}, "[12]": {"conditions": "oral, period 0-30 minutes post-dose, Fasting"}, "[13]": {"conditions": "oral, period 0-3 hours post-dose, Breakfast 20 min post-dose"}, "[14]": {"conditions": "oral, period 0-3 hours post-dose, Breakfast 30 min post-dose"}, "[15]": {"conditions": "oral, period 0-3 hours post-dose, Fasting"}, "[16]": {"conditions": "po, 400 mg, 400 mg 4-CNAB/300 IU insulin oral, Breakfast 20 min post-dose"}, "[17]": {"conditions": "po, 400 mg, 400 mg 4-CNAB/300 IU insulin oral, Breakfast 30 min post-dose"}, "[18]": {"conditions": "po, 400 mg, 400 mg 4-CNAB/300 IU insulin oral, Fasting"}}, "note": "Where two headings read alike, the source gives them in different places."}
{"molecule": "O=C(O)CCCNC(=O)c1ccc(Cl)cc1O", "note": "[4-CNAB, 4-[(4-chloro, 2-hydroxybenzoyl)amino]butanoic acid]", "values": [{"measurement": "Effect of food intake on 4-CNAB pharmacokinetics", "setting": "[1]; breakfast 30 or 20 minutes after dosing", "result": "no effect on the pharmacokinetics of 4-CNAB"}, {"measurement": "AUC", "setting": "[1]; [7]", "result": 2800, "unit": "ng·h/mL"}, {"measurement": "Cmax", "setting": "[1]; [7]", "result": 20600, "unit": "ng/mL"}, {"measurement": "Tmax", "setting": "[1]; oral, period 0-20 minutes post-dose, Breakfast 20 min post-dose, read-out: Plasma 4-CNAB tmax", "result": 19.8, "unit": "min"}, {"measurement": "AUC", "setting": "[1]; [8]", "result": 2280, "unit": "ng·h/mL"}, {"measurement": "Cmax", "setting": "[1]; [8]", "result": 18800, "unit": "ng/mL"}, {"measurement": "Tmax", "setting": "[1]; oral, period 0-20 minutes post-dose, Breakfast 30 min post-dose, read-out: Plasma 4-CNAB tmax", "result": 19.8, "unit": "min"}, {"measurement": "AUC", "setting": "[1]; [9]", "result": 2900, "unit": "ng·h/mL"}, {"measurement": "Cmax", "setting": "[1]; [9]", "result": 20700, "unit": "ng/mL"}, {"measurement": "Tmax", "setting": "[1]; oral, period 0-20 minutes post-dose, Fasting, read-out: Plasma 4-CNAB tmax", "result": 19.8, "unit": "min"}, {"measurement": "AUC", "setting": "[1]; [10]", "result": 6370, "unit": "ng·h/mL"}, {"measurement": "Cmax", "setting": "[1]; [10]", "result": 24600, "unit": "ng/mL"}, {"measurement": "Tmax", "setting": "[1]; oral, period 0-30 minutes post-dose, Breakfast 20 min post-dose, read-out: Plasma 4-CNAB tmax", "result": 25.2, "unit": "min"}, {"measurement": "AUC", "setting": "[1]; [11]", "result": 5960, "unit": "ng·h/mL"}, {"measurement": "Cmax", "setting": "[1]; [11]", "result": 24000, "unit": "ng/mL"}, {"measurement": "Tmax", "setting": "[1]; oral, period 0-30 minutes post-dose, Breakfast 30 min post-dose, read-out: Plasma 4-CNAB tmax", "result": 28.8, "unit": "min"}, {"measurement": "AUC", "setting": "[1]; [12]", "result": 6300, "unit": "ng·h/mL"}, {"measurement": "Cmax", "setting": "[1]; [12]", "result": 21500, "unit": "ng/mL"}, {"measurement": "Tmax", "setting": "[1]; oral, period 0-30 minutes post-dose, Fasting, read-out: Plasma 4-CNAB tmax", "result": 23.4, "unit": "min"}, {"measurement": "AUC", "setting": "[1]; [13]", "result": 16500, "unit": "ng·h/mL"}, {"measurement": "Cmax", "setting": "[1]; [13]", "result": 25000, "unit": "ng/mL"}, {"measurement": "Tmax", "setting": "[1]; oral, period 0-3 hours post-dose, Breakfast 20 min post-dose, read-out: Plasma 4-CNAB tmax", "result": 27.6, "unit": "min"}, {"measurement": "AUC", "setting": "[1]; [14]", "result": 17100, "unit": "ng·h/mL"}, {"measurement": "Cmax", "setting": "[1]; [14]", "result": 24000, "unit": "ng/mL"}, {"measurement": "Tmax", "setting": "[1]; oral, period 0-3 hours post-dose, Breakfast 30 min post-dose, read-out: Plasma 4-CNAB tmax", "result": 30, "unit": "min"}, {"measurement": "AUC", "setting": "[1]; [15]", "result": 18300, "unit": "ng·h/mL"}, {"measurement": "Cmax", "setting": "[1]; [15]", "result": 21800, "unit": "ng/mL"}, {"measurement": "Tmax", "setting": "[1]; oral, period 0-3 hours post-dose, Fasting, read-out: Plasma 4-CNAB tmax", "result": 26.4, "unit": "min"}, {"measurement": "Cmax", "setting": "[1]; [16]", "result": 25000, "unit": "ng/mL"}, {"measurement": "AUC(0-inf)", "setting": "[1]; [16]", "result": 18000, "unit": "ng·h/mL"}, {"measurement": "half-life", "setting": "[1]; [16]", "result": 39, "unit": "min"}, {"measurement": "Tmax", "setting": "[1]; po, 400 mg, 400 mg 4-CNAB/300 IU insulin oral, Breakfast 20 min post-dose, read-out: Plasma 4-CNAB tmax, Median (min-max)", "result": 25.2, "unit": "min"}, {"measurement": "Cmax", "setting": "[1]; [17]", "result": 24000, "unit": "ng/mL"}, {"measurement": "AUC(0-inf)", "setting": "[1]; [17]", "result": 18400, "unit": "ng·h/mL"}, {"measurement": "half-life", "setting": "[1]; [17]", "result": 42, "unit": "min"}, {"measurement": "Tmax", "setting": "[1]; po, 400 mg, 400 mg 4-CNAB/300 IU insulin oral, Breakfast 30 min post-dose, read-out: Plasma 4-CNAB tmax, Median (min-max)", "result": 30, "unit": "min"}, {"measurement": "Cmax", "setting": "[1]; [18]", "result": 21800, "unit": "ng/mL"}, {"measurement": "AUC(0-inf)", "setting": "[1]; [18]", "result": 20700, "unit": "ng·h/mL"}, {"measurement": "half-life", "setting": "[1]; [18]", "result": 51.6, "unit": "min"}, {"measurement": "Tmax", "setting": "[1]; po, 400 mg, 400 mg 4-CNAB/300 IU insulin oral, Fasting, read-out: Plasma 4-CNAB tmax, Median (min-max)", "result": 25.2, "unit": "min"}, {"measurement": "Highest proposed human dose (2000 mg) fold lower than NOAEL in monkeys", "setting": "rhesus monkeys", "result": "12-16 fold"}, {"measurement": "Tolerability", "setting": "[2]", "result": "well tolerated"}, {"measurement": "4-CNAB plasma concentration after 2 hours relative to level at 10 minutes", "setting": "[3]", "result": "less than 10%"}, {"measurement": "Fold greater penetration of the GI mucosa vs delivery agent 1", "setting": "[4]; humans, 800 mg vs 750 mg oral", "result": "approximately 13.5 fold"}, {"measurement": "Fold greater penetration of the GI mucosa vs delivery agent 2", "setting": "[4]; humans, 800 mg vs 750 mg oral", "result": "> 23", "unit": "fold"}, {"measurement": "AUC", "setting": "[4]; plasma, oral capsules, 800 mg, healthy human volunteers", "result": 47500, "unit": "ng·h/mL"}, {"measurement": "Fold greater penetration of the GI mucosa vs delivery agent 1", "setting": "[5]; 300 mg oral each", "result": "more than 11 fold"}, {"measurement": "Fold greater penetration of the GI mucosa vs delivery agent 2", "setting": "[5]; 300 mg oral each", "result": "more than 6 fold"}, {"measurement": "AUC", "setting": "[5]; monkey, plasma, oral, 300 mg", "result": 499, "unit": "ng·h/mL"}, {"measurement": "Genotoxicity findings", "setting": "Genotoxicity studies", "result": "no positive findings"}]}
{"molecule": "oral insulin alone: recombinant human zinc insulin given orally without delivery agent", "values": [{"measurement": "Absolute bioavailability of insulin", "setting": "[6]", "result": "≤ 1", "unit": "%"}]}
